Source: patent publication US20150087686A1, “CRYSTALLINE FORMS OF SAXAGLIPTIN” (priority 2012, published 2015)
Where a name gives a salt, the structure may show the parent alone.

Experiments:
Assay type in all cases: physicochemical
[1] = Crystal form stability at room temperature (transformation to H2-1); conditions: H0.75-3: after one night
Description: WO20100115974 discloses three forms of saxagliptin hydrochloride (I-S, HT-S, IV-S) but with a water content of not more than 1.5% by weight. […] On the other hand, the saxagliptin hydrochloride dihydrate H2-1 is stable. Unfortunately, it is difficult to prepare it in pure form by an industrial process which could be reproducible at industrial scale.

[2] = Solubility and stability in water at room temperature; conditions: for Solubility in water: volumes of water in which the form is soluble / Solubility in water compared with saxagliptin HCl dihydrate H2-1: room temperature
[3] = Crystalline stability at 60° C.-37% RH (XRPD); conditions: stored at 60° C. with 37% RH
Procedure: Crystalline and chemical stability at 60° C.-37% RH: saxagliptin crystalline form I and the known saxagliptin crystalline forms H-1, H2-1 were stored at 60° C. with 37% relative humidity (RH). The samples were analyzed by XRPD and HPLC-MS to check crystalline transformation and chemical degradation. […] However, chemical degradations were observed (see Table 6 below).
(§1) Crystalline and chemical stability at 60° C.—37% RH: Saxagliptin crystalline forms H-1, H2-1 and A were stored at 60° C. with 37% RH. The samples were analyzed by XRPD and HPLC-MS to check crystalline transformation and chemical degradation.

[4] = Chemical stability at 60° C.-37% RH (amidine impurities by HPLC-MS); conditions: for Color of the solid form after storage: after 1 week
Procedure: Crystalline and chemical stability at 60° C.-37% RH: saxagliptin crystalline form I and the known saxagliptin crystalline forms H-1, H2-1 were stored at 60° C. with 37% relative humidity (RH). The samples were analyzed by XRPD and HPLC-MS to check crystalline transformation and chemical degradation.
as §1

## N#C[C@@H]1C[C@@H]2C[C@@H]2N1C(=O)[C@@H](N)C12CC3CC(CC(O)(C3)C1)C2 [Form H0.75-3, saxagliptin hydrochloride]
[1]; hydrochloride
  Crystal form stability (transformation to saxagliptin hydrochloride dihydrate H2-1): transforms to saxagliptin hydrochloride dihydrate H2-1

## N#C[C@@H]1C[C@@H]2C[C@@H]2N1C(=O)[C@@H](N)C12CC3CC(CC(O)(C3)C1)C2 [Form H2-1, saxagliptin hydrochloride dihydrate, reference compound]
[2]
  Solubility in water: volumes of water in which the form is soluble: 5 volumes of water
[1]; hydrochloride dihydrate
  Crystal form stability (transformation to saxagliptin hydrochloride dihydrate H2-1): stable

## N#C[C@@H]1C[C@@H]2C[C@@H]2N1C(=O)[C@@H](N)C12CC3CC(CC(O)(C3)C1)C2 [Form H-1, (1S,3S,5S)-2-[(2S)-2-amino-2-(3-hydroxy-1-adamantyl)acetyl]-2-azabicyclo[3.1.0]hexane-3-carbonitrile]
[3]
  Crystalline transformation (XRPD): No crystalline transformations were observed
[4]; 16 h (Table 6)
  Δ variation amidine Impurity % (HPLC-MS), impurity (A): 0.64% (A)
[4]; 16 h (Table 7)
  Δ variation amidine Impurities A and B % (HPLC-MS), impurity (A): 0.6% (A)
[4]; 168 h (Table 6)
  Δ variation amidine Impurity % (HPLC-MS), impurity (A): 2.68%
  Δ variation amidine Impurity % (HPLC-MS), impurity (B): 2.21%
[4]; 168 h (Table 7)
  Δ variation amidine Impurities A and B % (HPLC-MS), impurity (A): 2.7%
  Δ variation amidine Impurities A and B % (HPLC-MS), impurity (B): 2.2%
[4]; 184 h (Table 6)
  Δ variation amidine Impurity % (HPLC-MS), impurity (A): 2.86% (A) +
  Δ variation amidine Impurity % (HPLC-MS), impurity (B): 2.33% (B)
[4]
  Color of the solid form after storage: became yellowish

## Cl.N#C[C@@H]1C[C@@H]2C[C@@H]2N1C(=O)[C@@H](N)C12CC3CC(CC(O)(C3)C1)C2.O.O=C(O)CO [Form II, saxagliptin HCl glycolic acid cocrystal (1:1) monohydrate]
[2]
  Solubility in water (in words, description): quite soluble in water
  Solubility in water compared with saxagliptin HCl dihydrate H2-1: same solubility
  Solubility in water: volumes of water in which the form is soluble: 5 volumes of water

## Cl.N#C[C@@H]1C[C@@H]2C[C@@H]2N1C(=O)[C@@H](N)C12CC3CC(CC(O)(C3)C1)C2.NC(N)=O.NC(N)=O.NC(N)=O [Form IV, saxagliptin HCl.urea cocrystal (1:3)]
[2]
  Solubility in water (in words, description): very soluble in water
  Solubility in water compared with saxagliptin HCl dihydrate H2-1: more soluble
  Solubility in water: volumes of water in which the form is soluble: approximately 2.5 volumes of water

## N#C[C@@H]1C[C@@H]2C[C@@H]2N1C(=O)[C@@H](N)C12CC3CC(CC(O)(C3)C1)C2 [Form P-5, saxagliptin hydrochloride]
[1]; hydrochloride
  Crystal form stability (transformation to saxagliptin hydrochloride dihydrate H2-1): not very stable

## N#C[C@@H]1C[C@@H]2C[C@@H]2N1C(=O)[C@@H](N)C12CC3CC(CC(O)(C3)C1)C2 [HT-S, saxagliptin hydrochloride]
[1]; hydrochloride
  Crystal form stability (transformation to saxagliptin hydrochloride dihydrate H2-1): not very stable

## N#C[C@@H]1C[C@@H]2C[C@@H]2N1C(=O)[C@@H](N)C12CC3CC(CC(O)(C3)C1)C2 [I-S, saxagliptin hydrochloride]
[1]; hydrochloride
  Crystal form stability (transformation to saxagliptin hydrochloride dihydrate H2-1): not very stable

## N#C[C@@H]1C[C@@H]2C[C@@H]2N1C(=O)[C@@H](N)C12CC3CC(CC(O)(C3)C1)C2 [IV-S, saxagliptin hydrochloride]
[1]; hydrochloride
  Crystal form stability (transformation to saxagliptin hydrochloride dihydrate H2-1): not very stable

## saxagliptin HCl.malonic acid cocrystal (3:2) hydrate [Form III]
[2]
  Solubility in water (in words, description): soluble in water
  Solubility in water compared with saxagliptin HCl dihydrate H2-1: solubility similar
  Solubility in water: volumes of water in which the form is soluble: approximately 4 volumes of water

## saxagliptin HCl.saxagliptin cocrystal (1:1) hydrate [Form I]
[3]
  Crystalline transformation (XRPD): No crystalline transformations were observed
[4]
  Degradation rate / stability compared with free base H-1 and hydrochloride H2-1: much lower
  Color of the solid form after storage: remained white
[4]; 16 h (Table 6)
  Δ variation amidine Impurity % (HPLC-MS), impurity (A): 0.08% (A)
[4]; 168 h (Table 6)
  Δ variation amidine Impurity % (HPLC-MS), impurity (A): 0.38% (A)
[4]; 184 h (Table 6)
  Δ variation amidine Impurity % (HPLC-MS), impurity (A): 0.40% (A)
[2]
  Solubility in water (in words, description): soluble in water
[2]; 20 vol. in water at room temperature (20-25° C.)
  Solubility in water: soluble
[2]; 20 vol. in water at room temperature, after 24 h
  Stability in water (reprecipitation): reprecipitation was not observed
